Results published in the kinase profiling compilation of Christmann-Franck et al. (2016).
“And” between values parts separate entries of the source, which are not always exact repeats. Equal values may be shown once.

Experiments:
Experiment in all cases: radiometric filter-binding kinase assay, Kinase HotSpot
Conditions in all cases: compound 0.5 µM; ATP 10 µM
[1] = target: CAMK1G (human) (UniProt Q96NX5)
[2] = target: RAF1 (human) (UniProt P04049)
[3] = target: MAPK12 (human) (UniProt P53778)
[4] = target: DMPK (human) (UniProt Q09013)
[5] = target: PAK2 (human) (UniProt Q13177)
[6] = target: WNK2 (human) (UniProt Q9Y3S1)
[7] = target: EPHB1 (human) (UniProt P54762)
[8] = target: CDK5 CDK5R1 p25 (human) (UniProt Q00535+Q15078)
[9] = target: SLK (human) (UniProt Q9H2G2)
[10] = target: NEK7 (human) (UniProt Q8TDX7)
[11] = target: CDK3 CCNE1 (human) (UniProt Q00526+P24864)
[12] = target: SRPK3 (human) (UniProt Q9UPE1)
[13] = target: TTK (human) (UniProt P33981)
[14] = target: SGK2 (human) (UniProt Q9HBY8)
[15] = target: JAK1 JH1 catalytic (human) (UniProt P23458)
[16] = target: BRSK2 (human) (UniProt Q8IWQ3)
[17] = target: DYRK1A (human) (UniProt Q13627)
[18] = target: WEE1 (human) (UniProt P30291)
[19] = target: NTRK1 (human) (UniProt P04629)
[20] = target: CDC42BPA (human) (UniProt Q5VT25)
[21] = target: CAMKK2 (human) (UniProt Q96RR4)
[22] = target: FLT1 (human) (UniProt P17948)
[23] = target: AURKA (human) (UniProt O14965)
[24] = target: EPHB3 (human) (UniProt P54753)
[25] = target: GRK6 (human) (UniProt P43250)
[26] = target: MAPK14 (human) (UniProt Q16539)
[27] = target: STK16 (human) (UniProt O75716)
[28] = target: FGFR2 (human) (UniProt P21802)
[29] = target: HCK (human) (UniProt P08631)
[30] = target: PRKCE (human) (UniProt Q02156)
[31] = target: KDR (human) (UniProt P35968)
[32] = target: PRKG1 (human) (UniProt Q13976)
[33] = target: AKT1 (human) (UniProt P31749)
[34] = target: PASK (human) (UniProt Q96RG2)
[35] = target: ABL1 (human) (UniProt P00519)
[36] = target: MAP3K11 (human) (UniProt Q16584)
[37] = target: PHKG2 (human) (UniProt P15735)
[38] = target: ALK (human) (UniProt Q9UM73)
[39] = target: MARK2 (human) (UniProt Q7KZI7)
[40] = target: STK39 (human) (UniProt Q9UEW8)
[41] = target: NUAK1 (human) (UniProt O60285)
[42] = target: FGFR3 (human) (UniProt P22607)

Sequence of PRKG1 (human) (Q13976 whole entry, looked up): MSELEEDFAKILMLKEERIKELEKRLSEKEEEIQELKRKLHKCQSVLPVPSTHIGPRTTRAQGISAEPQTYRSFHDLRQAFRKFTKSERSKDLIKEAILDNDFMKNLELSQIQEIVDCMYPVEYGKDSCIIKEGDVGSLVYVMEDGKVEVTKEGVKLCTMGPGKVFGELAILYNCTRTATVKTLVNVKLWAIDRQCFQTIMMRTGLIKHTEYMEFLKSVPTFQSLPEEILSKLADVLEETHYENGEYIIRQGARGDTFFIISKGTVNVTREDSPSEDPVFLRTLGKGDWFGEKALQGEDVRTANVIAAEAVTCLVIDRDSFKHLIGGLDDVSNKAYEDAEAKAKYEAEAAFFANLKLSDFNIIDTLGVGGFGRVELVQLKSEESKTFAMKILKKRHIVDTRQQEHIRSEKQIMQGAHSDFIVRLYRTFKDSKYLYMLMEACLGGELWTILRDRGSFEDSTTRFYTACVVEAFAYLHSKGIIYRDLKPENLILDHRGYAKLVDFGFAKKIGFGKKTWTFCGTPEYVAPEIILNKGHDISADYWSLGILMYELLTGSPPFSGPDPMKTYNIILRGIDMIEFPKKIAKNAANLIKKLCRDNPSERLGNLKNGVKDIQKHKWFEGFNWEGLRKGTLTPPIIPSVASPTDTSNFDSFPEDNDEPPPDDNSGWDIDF
Sequence of MAP3K11 (human) (Q16584 whole entry, looked up): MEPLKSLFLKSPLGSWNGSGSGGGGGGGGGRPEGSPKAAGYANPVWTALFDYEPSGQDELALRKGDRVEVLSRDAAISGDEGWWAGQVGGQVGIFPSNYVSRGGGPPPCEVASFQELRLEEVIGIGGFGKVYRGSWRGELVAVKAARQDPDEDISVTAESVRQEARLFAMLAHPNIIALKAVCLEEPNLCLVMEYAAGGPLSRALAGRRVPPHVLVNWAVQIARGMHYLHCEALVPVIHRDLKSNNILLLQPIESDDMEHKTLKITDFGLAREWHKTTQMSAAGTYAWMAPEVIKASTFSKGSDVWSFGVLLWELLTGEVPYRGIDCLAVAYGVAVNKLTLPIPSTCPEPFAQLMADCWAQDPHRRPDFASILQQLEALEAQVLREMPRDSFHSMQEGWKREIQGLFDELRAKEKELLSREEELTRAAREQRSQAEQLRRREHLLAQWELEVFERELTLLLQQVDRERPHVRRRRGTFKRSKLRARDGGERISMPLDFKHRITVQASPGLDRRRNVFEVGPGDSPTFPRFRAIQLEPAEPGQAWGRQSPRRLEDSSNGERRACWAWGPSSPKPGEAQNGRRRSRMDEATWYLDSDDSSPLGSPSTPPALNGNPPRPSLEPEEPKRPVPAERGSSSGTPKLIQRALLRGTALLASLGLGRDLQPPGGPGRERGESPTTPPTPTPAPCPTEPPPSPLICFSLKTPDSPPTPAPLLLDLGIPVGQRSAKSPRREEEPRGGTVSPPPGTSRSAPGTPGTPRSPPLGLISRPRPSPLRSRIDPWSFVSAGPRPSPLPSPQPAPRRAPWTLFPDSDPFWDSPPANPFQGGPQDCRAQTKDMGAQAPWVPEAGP
Sequence of RAF1 (human) (P04049 whole entry, looked up): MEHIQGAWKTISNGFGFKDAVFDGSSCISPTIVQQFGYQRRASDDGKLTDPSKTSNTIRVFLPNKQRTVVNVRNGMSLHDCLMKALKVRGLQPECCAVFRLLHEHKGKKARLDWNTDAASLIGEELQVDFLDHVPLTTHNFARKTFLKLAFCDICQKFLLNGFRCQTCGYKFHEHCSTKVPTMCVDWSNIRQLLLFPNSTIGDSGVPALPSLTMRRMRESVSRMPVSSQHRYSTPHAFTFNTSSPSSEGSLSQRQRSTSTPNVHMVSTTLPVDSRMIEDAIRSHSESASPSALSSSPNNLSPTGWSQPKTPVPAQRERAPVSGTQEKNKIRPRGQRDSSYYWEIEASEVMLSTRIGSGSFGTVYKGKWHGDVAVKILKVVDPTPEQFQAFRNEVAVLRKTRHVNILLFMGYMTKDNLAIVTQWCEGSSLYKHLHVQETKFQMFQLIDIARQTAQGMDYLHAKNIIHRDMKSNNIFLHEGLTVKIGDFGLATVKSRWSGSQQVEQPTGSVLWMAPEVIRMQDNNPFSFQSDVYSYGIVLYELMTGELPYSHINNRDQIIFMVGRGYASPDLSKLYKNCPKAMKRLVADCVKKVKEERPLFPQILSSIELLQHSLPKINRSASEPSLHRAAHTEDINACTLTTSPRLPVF
Sequence of JAK1 JH1 catalytic (human) (P23458 whole entry, looked up): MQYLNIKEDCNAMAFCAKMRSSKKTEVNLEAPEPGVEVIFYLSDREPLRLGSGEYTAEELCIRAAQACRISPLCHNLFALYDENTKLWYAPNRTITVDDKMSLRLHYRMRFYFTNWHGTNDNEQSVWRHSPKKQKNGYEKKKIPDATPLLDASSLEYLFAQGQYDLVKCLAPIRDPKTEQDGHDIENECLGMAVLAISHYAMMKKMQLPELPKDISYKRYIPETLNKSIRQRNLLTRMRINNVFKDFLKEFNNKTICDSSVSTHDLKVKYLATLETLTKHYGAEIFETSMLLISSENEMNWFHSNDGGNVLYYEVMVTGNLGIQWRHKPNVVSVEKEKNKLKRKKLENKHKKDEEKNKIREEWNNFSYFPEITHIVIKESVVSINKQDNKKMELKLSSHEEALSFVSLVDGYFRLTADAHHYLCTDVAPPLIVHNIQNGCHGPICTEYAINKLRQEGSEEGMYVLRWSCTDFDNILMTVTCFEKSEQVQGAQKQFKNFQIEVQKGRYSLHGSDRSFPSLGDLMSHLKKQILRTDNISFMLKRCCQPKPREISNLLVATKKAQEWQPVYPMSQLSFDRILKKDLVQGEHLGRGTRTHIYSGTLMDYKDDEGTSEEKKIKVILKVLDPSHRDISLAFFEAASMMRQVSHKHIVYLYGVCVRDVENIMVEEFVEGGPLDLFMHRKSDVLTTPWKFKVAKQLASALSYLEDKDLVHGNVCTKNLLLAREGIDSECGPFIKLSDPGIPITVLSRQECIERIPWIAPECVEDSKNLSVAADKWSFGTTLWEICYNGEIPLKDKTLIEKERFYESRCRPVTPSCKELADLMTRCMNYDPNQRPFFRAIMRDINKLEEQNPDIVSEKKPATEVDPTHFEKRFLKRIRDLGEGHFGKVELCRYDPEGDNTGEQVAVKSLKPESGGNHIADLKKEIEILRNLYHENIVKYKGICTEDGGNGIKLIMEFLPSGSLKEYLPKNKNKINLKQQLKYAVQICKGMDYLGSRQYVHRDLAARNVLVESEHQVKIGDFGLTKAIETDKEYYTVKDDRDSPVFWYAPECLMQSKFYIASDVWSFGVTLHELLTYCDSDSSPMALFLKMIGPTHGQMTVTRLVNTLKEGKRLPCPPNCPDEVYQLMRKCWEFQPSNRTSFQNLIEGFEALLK
Sequence of BRSK2 (human) (Q8IWQ3 whole entry, looked up): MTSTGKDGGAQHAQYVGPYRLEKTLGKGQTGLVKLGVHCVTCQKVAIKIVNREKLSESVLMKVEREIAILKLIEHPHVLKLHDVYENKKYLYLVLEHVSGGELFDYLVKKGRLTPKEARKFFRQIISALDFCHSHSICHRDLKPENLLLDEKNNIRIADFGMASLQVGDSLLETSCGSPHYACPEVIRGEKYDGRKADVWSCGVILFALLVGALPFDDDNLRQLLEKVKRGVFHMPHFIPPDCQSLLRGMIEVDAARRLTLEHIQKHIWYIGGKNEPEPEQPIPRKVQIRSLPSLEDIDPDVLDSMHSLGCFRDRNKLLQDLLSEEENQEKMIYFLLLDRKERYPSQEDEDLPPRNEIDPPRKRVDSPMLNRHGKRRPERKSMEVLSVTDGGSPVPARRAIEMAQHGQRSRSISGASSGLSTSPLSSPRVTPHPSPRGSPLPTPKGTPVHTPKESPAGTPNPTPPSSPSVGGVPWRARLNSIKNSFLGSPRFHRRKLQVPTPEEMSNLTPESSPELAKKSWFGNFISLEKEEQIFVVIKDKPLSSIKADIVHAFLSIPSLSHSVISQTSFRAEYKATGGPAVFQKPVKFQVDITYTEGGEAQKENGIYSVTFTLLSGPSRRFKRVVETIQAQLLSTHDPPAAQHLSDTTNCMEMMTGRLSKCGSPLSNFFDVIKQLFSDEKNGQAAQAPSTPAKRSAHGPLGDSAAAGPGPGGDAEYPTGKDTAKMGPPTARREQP
Sequence of HCK (human) (P08631 whole entry, looked up): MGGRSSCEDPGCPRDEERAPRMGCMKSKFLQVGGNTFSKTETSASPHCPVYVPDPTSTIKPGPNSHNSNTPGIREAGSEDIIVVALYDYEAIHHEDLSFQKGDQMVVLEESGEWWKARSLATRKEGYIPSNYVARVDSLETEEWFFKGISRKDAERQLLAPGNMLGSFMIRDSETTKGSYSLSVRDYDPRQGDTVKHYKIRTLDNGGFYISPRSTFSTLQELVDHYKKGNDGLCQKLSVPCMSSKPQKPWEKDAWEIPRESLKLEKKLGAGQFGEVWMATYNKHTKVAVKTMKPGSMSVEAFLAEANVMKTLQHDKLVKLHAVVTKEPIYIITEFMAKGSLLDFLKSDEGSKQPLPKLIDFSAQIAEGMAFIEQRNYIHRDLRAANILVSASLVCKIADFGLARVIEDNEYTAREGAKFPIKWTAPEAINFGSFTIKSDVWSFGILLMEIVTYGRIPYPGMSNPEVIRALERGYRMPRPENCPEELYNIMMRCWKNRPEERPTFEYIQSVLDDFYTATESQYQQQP
Sequence of AKT1 (human) (P31749 whole entry, looked up): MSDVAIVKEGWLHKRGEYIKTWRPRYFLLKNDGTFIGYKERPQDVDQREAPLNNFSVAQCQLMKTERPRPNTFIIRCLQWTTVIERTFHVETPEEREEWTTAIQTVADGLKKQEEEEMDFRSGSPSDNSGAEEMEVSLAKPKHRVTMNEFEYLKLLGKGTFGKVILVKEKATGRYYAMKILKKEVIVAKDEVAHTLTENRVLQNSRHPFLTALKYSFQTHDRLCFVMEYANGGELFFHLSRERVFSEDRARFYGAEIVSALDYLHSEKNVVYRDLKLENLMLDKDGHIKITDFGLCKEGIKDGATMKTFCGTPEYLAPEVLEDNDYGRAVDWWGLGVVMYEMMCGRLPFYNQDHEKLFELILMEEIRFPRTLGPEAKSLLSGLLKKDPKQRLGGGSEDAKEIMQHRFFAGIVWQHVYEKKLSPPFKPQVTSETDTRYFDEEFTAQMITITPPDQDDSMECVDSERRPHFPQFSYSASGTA

## CCOc1cc2ncnc(Nc3cccc(Br)c3)c2cc1OCC
[1]
  residual activity: 97.2%
[2]
  residual activity: 91.6%
[3]
  residual activity: 105%
[4]
  residual activity: 102%
[5]
  residual activity: 105%
[6]
  residual activity: 95.8%
[7]
  residual activity: 73.8%
[8]
  residual activity: 89.5%
[9]
  residual activity: 64.8%
[10]
  residual activity: 98.6%
[11]
  residual activity: 95.2%
[12]
  residual activity: 93.5%
[13]
  residual activity: 91.2%
[14]
  residual activity: 106%
[15]
  residual activity: 102%
[16]
  residual activity: 94%
[17]
  residual activity: 98.7%
[18]
  residual activity: 97.9%
[19]
  residual activity: 89.6%
[20]
  residual activity: 85.4%
[21]
  residual activity: 101%
[22]
  residual activity: 85%
[23]
  residual activity: 110%
[24]
  residual activity: 99.7%
[25]
  residual activity: 96%
[26]
  residual activity: 87.5%
[27]
  residual activity: 98.4%
[28]
  residual activity: 96.3%
[29]
  residual activity: 59.4%
[30]
  residual activity: 94.5%
[31]
  residual activity: 92%
[32]
  residual activity: 96% and 96.7%
[33]
  residual activity: 112%
[34]
  residual activity: 92.3%
[35]
  residual activity: 64.3%
[36]
  residual activity: 93%
[37]
  residual activity: 101%
[38]
  residual activity: 85.8%
[39]
  residual activity: 94.5%
[40]
  residual activity: 110%
[41]
  residual activity: 94%
[42]
  residual activity: 103%

## O=C(c1ccccc1)c1ccc(N2CCOCC2)cc1O
[1]
  residual activity: 96.1%
[2]
  residual activity: 95.9%
[3]
  residual activity: 100%
[4]
  residual activity: 98.9%
[5]
  residual activity: 103%
[6]
  residual activity: 100%
[7]
  residual activity: 104%
[8]
  residual activity: 98.8%
[9]
  residual activity: 106%
[10]
  residual activity: 104%
[11]
  residual activity: 105%
[12]
  residual activity: 103%
[13]
  residual activity: 104%
[14]
  residual activity: 105%
[15]
  residual activity: 108%
[16]
  residual activity: 95.5%
[17]
  residual activity: 101%
[18]
  residual activity: 94.2%
[19]
  residual activity: 99%
[20]
  residual activity: 95.5%
[21]
  residual activity: 111%
[22]
  residual activity: 97.4%
[23]
  residual activity: 108%
[24]
  residual activity: 92.2%
[25]
  residual activity: 99.4%
[26]
  residual activity: 96.3%
[27]
  residual activity: 104%
[28]
  residual activity: 99.1%
[29]
  residual activity: 114%
[30]
  residual activity: 92.3%
[31]
  residual activity: 96.8%
[32]
  residual activity: 86.8% and 96.4%
[33]
  residual activity: 102%
[34]
  residual activity: 94.3%
[35]
  residual activity: 102%
[36]
  residual activity: 93.2%
[37]
  residual activity: 101%
[38]
  residual activity: 102%
[39]
  residual activity: 107%
[40]
  residual activity: 94.8%
[41]
  residual activity: 94.9%
[42]
  residual activity: 104%
